Results from PubChem BioAssay AID179 (DTP/NCI, 2004).
pEC50, pIC50: −log10 of the molar value. Activity calls are given as the source filed them.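 The calls were made as follows: active = compounds giving half or more protection of infected cells from virus-caused growth loss, again on retest; inactive = the rest.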 Where a SMILES comes first, the peptide text is derived from it.

System: CEM cells HIV-1 protection, formazan growth assay
Test: NCI AIDS Antiviral Assay
Settings: for pIC50: measured here: growth of uninfected CEM cells
Method in brief: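 CEM (human) cells, HIV-1 infected vs uninfected, 5-point dosing, formazan growth read-out. Retest threshold 50% protection.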

| SMILES | pEC50 | pIC50 | outcome |
| --- | --- | --- | --- |
| CC(C)CC(NC(=O)C(CCC(=O)O)NC(=O)CNC(=O)CNC(=O)C(CO)NC(=O)C(CC(C)C)NC(=O)C(NC(=O)C(CO)NC(=O)C(C)NC(=O)C(CCCNC(=N)N)NC(=O)C(C)NC(=O)CN)C(C)C)C(=O)NC(CC(=O)O)C(=O)NC(CCCNC(=N)N)C(=O)NC(Cc1c[nH]c2ccccc12)C(=O)NC(Cc1ccc(O)cc1)C(N)=O (stereo unspecified) (H-GARASVLSGGELDRWY-NH2; configuration not given here) | < 3.84 | < 3.84 | – |
| CC/C(CC(=O)CCC(=O)Nc1ccc(C)c(C)c1)=N\NC(=O)c1cc2ccccc2cc1O | < 4.80 | 5.00 | – |
| CCC(C(=O)NC1CN2CCC1CC2)c1ccccc1 (stereo unspecified) | < 3.70 | 3.76 | – |
| CCOC(=O)/N=N/C(C)(C)OC(C)=O | < 3.70 | < 3.70 | – |
| O=[N+]([O-])/C(C(Cl)=C(Cl)Cl)=C(/Cl)SCc1ccccc1 | < 3.70 | 4.96 | – |
| C=C1C(=O)O[C@@H]2C[C@@H](C)[C@@H]3C=CC(=O)[C@@]3(C)[C@@H](OC(=O)CCCC(=O)O[C@H]3[C@@H]4C(=C)C(=O)O[C@@H]4C[C@@H](C)[C@@H]4C=CC(=O)[C@]43C)[C@H]12 | < 5.24 | 6.39 | – |
| CCCCCCCCCCCCCCC1OC(=O)c2ccccc21 (stereo unspecified) | – | – | inactive |
| O=C1CS(=O)(=O)C(c2ccc(Cl)cc2)N1N1C(=O)CS(=O)(=O)C1c1ccc(Cl)cc1 (stereo unspecified) | < 3.70 | 5.24 | – |
| CCCCCCCCCCCCCCCCOP(=O)(O)OCC(N)C(=O)O (stereo unspecified) | < 3.70 | 4.73 | – |
| [O]=[Sb]([OH])([OH])[c]1ccc(Br)cc1 | < 3.70 | 4.45 | – |
| Oc1ccc2ccccc2c1N=Nc1ccsc1 | < 4.69 | < 4.69 | – |
| COC(=O)c1cc(Cl)ccc1NC(=O)c1ccc([N+](=O)[O-])cc1 | – | – | inactive |
| N#Cc1nc(C2CCC2)oc1N | < 3.70 | < 3.70 | – |
| COc1ccc(OC)c(/C=C2\CCc3ccccc3C2=O)c1 | < 4.75 | 5.54 | – |
| COC1=CC(=O)c2nc(COC(C)=O)ccc2C1=O | – | – | inactive |
| CC(=O)OCc1ccc2c(c1)C(O)NC(=O)O2 (stereo unspecified) | < 3.70 | 3.98 | – |
| COc1ccc2c(c1)[C@@H](NC(C)=O)CCc1cc(OC)c(OC)c(OC)c1-2 | < 7.15 | 7.96 | – |
| C[C@@H](NC(=O)c1ccccc1SC(=O)OCCCCCl)C(N)=O | 5.62 | 3.71 | – |
| Cc1cc(S(=O)(=O)O)c(NC(=O)C(=O)C2C=CCS2(=O)=O)cc1Cl (stereo unspecified) | < 3.20 | < 3.20 | – |
| CC1(C)CN=C(Nc2cccc(C(F)(F)F)c2)S1 | < 3.70 | 4.38 | – |
| COc1ccc(/C=C2\C(=O)Nc3ccccc32)cc1OC | < 5.71 | < 5.71 | – |
| COc1ccc(CNNCc2ccc(OC)cc2)cc1 | < 3.70 | 3.96 | – |

| SMILES | pEC50 | pIC50 | outcome |
| --- | --- | --- | --- |
| C=Cc1cc[n+](CC(=O)c2ccc(-c3ccccc3)cc2)cc1 | < 3.70 | 4.34 | – |
| CCOC(=O)c1nn2c(nc1=O)sc1ccc3ccccc3c12 | < 4.16 | < 4.16 | – |
| CC(C)Cc1cnc(CC(C)C)c(-c2cc3ccccc3[nH]2)n1 | < 5.05 | < 5.05 | – |
| COC1=C(C)C(=O)c2nc(Cl)ccc2C1=O | – | – | inactive |
| CN(CC(=O)Nc1ccccc1C(=O)O)c1ccccc1 | < 3.70 | 4.16 | – |
| COC(=O)c1cc(=O)[nH]c2c1c(=O)n(C)c(=O)n2C | < 3.70 | < 3.70 | – |
| CCCCNc1nc2nc[nH]c2c(=O)[nH]1 | < 3.70 | < 3.70 | – |
| CCOC(=O)C1C=CC(C)C2CCCCC12N1CCCC1 (stereo unspecified) | – | – | inactive |
| COc1ccc(-c2c(C#N)c(NC(=S)NC(=O)c3ccccc3)nc3c2CCCC3)cc1OC | < 3.70 | 3.94 | – |
| COc1ccccc1N1C(Cl)C(=O)C1c1c[nH]c2ccccc12 (stereo unspecified) | < 3.82 | 3.89 | – |
| CN1CC2=C(NC(=S)NC2c2ccccc2)/C(=C/c2ccccc2)C1 (stereo unspecified) | 4.72 | 4.07 | – |
| CC12CCC(C1)C(O)(c1ccccc1)C2(O)c1ccccc1 (stereo unspecified) | < 4.22 | 4.35 | – |
| CCc1cccc(C(C)C)c1NC(=O)C(=O)Nn1c(=S)[nH]c2ccccc2c1=O | < 3.91 | < 3.91 | – |
| C=C1c2nc3ccccc3n2C=C(c2ccccc2)N1c1ccccc1 | < 3.70 | 5.40 | – |
| CC(NC(=O)C(=O)N/N=C1\CC(c2ccccc2)Sc2ccccc21)c1ccccc1 (stereo unspecified) | – | – | inactive |
| O=c1cc(-c2ccccc2)oc2ccccc12 | < 3.87 | 4.12 | – |
| OCC1OC(n2cnc(C3=NCC(O)CN3)n2)C(O)C1O (stereo unspecified) | – | – | inactive |
| c1ccc(CNCCCNCCCCNCCCNCc2ccccc2)cc1 | < 4.82 | 5.79 | – |
| COc1ccc(C=C(C(=O)c2ccccc2)C(=O)c2ccccc2)cc1 | < 4.68 | < 4.68 | – |
| N#CC1C(=N)Cc2ccccc2-c2ccccc21 (stereo unspecified) | < 3.70 | 5.81 | – |
| CC(=O)O[C@]1(C)C(=O)OC2C1C(OC(=O)C=C(C)C)C[C@](C)(OC(C)=O)[C@H]1[C@H](O)C=C(C)[C@@H]21 (stereo partly specified) | < 3.57 | 5.00 | – |
| O=C(O)[C@@H]1CCS(=O)(=O)N1 | < 3.70 | < 3.70 | – |

| SMILES | pEC50 | pIC50 | outcome |
| --- | --- | --- | --- |
| O=c1n(-c2ccccc2)c(=O)n2n1Cc1cc3ccccc3cc1-2 | < 4.10 | < 4.10 | – |
| Cc1cc(=O)[nH]c(NN2C(Cl)C(=O)C2c2ccco2)n1 (stereo unspecified) | < 4.75 | < 4.75 | – |
| CN(C)CCC(/C=C/c1ccccc1)=N\Nc1ccc(Cl)c(Cl)c1 | – | – | inactive |
| CCN(CC)C(=O)CCCCCCCCC1CO1 (stereo unspecified) | < 3.70 | 3.94 | – |
| CCOC(=O)c1ccc(CSc2ccccc2)cc1 | < 4.58 | < 4.58 | – |
| C/C(CC(=O)Nc1cccc(Cl)c1C)=N\NC(N)=S | < 3.92 | < 3.92 | – |
| c1cnc2c(c1)-n1cccc1C1(CCSCC1)NN2 | < 4.22 | < 4.22 | – |
| O=c1c(CCO)c(C2CC2)n2n1CCCC2 | < 2.95 | < 3.70 | – |
| Cc1c2ccccc2nc(CN2CCCCC2)[n+]1[O-] | < 3.70 | < 3.70 | – |
| COC(=O)C(=O)C(C(=O)C(=O)Nc1ccc(Cl)cc1Cl)c1nc2ccc(Cl)cc2[nH]c1=O (stereo unspecified) | < 4.42 | < 4.42 | – |
| [C-]#[N+][C@@]1(C)CCC2C(C)CC[C@@H](C(=C)C)[C@@]23C=C(C)CC[C@H]31 (stereo partly specified) | < 3.70 | 3.86 | – |
| O=c1[nH]c2c(O)cccc2c2cc3c(c(O)c12)OCO3 | – | – | inactive |
| N#CC(c1cc2c(cc1Br)OCO2)N1CCOCC1 (stereo unspecified) | < 3.70 | 5.01 | – |
| Cc1ccc(S(=O)(=O)N/N=C(\c2nc3ccc(Cl)cc3[nH]c2=O)C(O)c2ccco2)cc1 (stereo unspecified) | < 3.56 | 4.77 | – |
| NC1C2(CCCCCC2)NC(=O)C12CCCCCC2 (stereo unspecified) | – | – | inactive |
| O=C(O)C12CC3CC(CC(F)(C3)C1)C2 | < 3.04 | < 3.04 | – |
| CN(C)C(n1cc2c(c1)-c1ccc(Cl)cc1C(c1ccccc1F)=NC2)n1cc2c(c1)-c1ccc(Cl)cc1C(c1ccccc1F)=NC2 | < 4.00 | 4.02 | – |
| Cc1cc2c(C(C)C)c(O)c(O)c(C=NCc3ccoc3)c2c(O)c1-c1c(C)cc2c(C(C)C)c(O)c(O)c(C=NCc3ccco3)c2c1O | < 3.70 | 5.00 | – |
| CO/C(=N\N=C\c1ccc(Cl)cc1)c1ccncc1 | < 3.70 | < 3.70 | – |
| Cc1cc(NCCCCCCNc2cc(C)nc3cc(N(C)C)ccc23)c2ccc(N(C)C)cc2n1 | – | – | inactive |
| O=C(Nc1ccc([N+](=O)[O-])cc1[N+](=O)[O-])C(=O)C(C(=O)c1ccc(Cl)c(Cl)c1)C1OC(=O)c2ccccc21 (stereo unspecified) | < 4.05 | 4.54 | – |
| Cn1c2ccccc2c2nnc(N/N=C/c3cccs3)nc21 | < 3.70 | < 3.70 | – |

| SMILES | pEC50 | pIC50 | outcome |
| --- | --- | --- | --- |
| CCC1CCC2c3c([nH]c4ccccc34)C3C(=O)N(c4ccc(OC)cc4)C(=O)C3C2C1 (stereo unspecified) | 4.47 | < 3.70 | – |
| CC1=NN(c2nc(N)nc(C/C(N)=N/O)n2)C(C)(C)C1 | < 3.70 | < 3.70 | – |
| Cc1nnc2sc(=S)[nH]n12 | – | – | inactive |
| Cc1c(C)c2c(c(N)c1C#N)C(=O)N(Nc1ccccc1)C2=O | < 3.70 | 4.10 | – |
| O=C1CCN2C(=O)CCN12 | < 2.75 | < 2.75 | – |
| COC(=O)[C@@H]1COC(C(C)(C)C)N1C(=O)C(c1ccccc1)c1ccccc1 (stereo partly specified) | – | – | inactive |
| COc1ccc([N+](=O)[O-])c(/C(C#N)=C/c2ccccc2)c1 | < 3.70 | 4.91 | – |
| NC(=O)c1ccc(NC(=O)c2ccccc2SC(=O)CCCC[n+]2ccccc2)cc1 | 5.13 | 4.80 | – |
| C/C(=N\N(C)C)C(CN1CCCCC1)C(c1ccccc1)c1c(O)c2ccccc2oc1=O (stereo unspecified) | < 4.16 | < 4.16 | – |
| COc1cccc(/C=c2\[nH]c(=O)/c(=C/c3cccc(OC)c3OC)[nH]c2=O)c1OC | < 5.04 | < 5.04 | – |
| C=c1c2ccccc2oc2nc3[nH]c(N)c(C#N)c(N)c3c(=N)c12 | < 3.70 | 5.14 | – |
| O=C(CC(=O)Nc1ccccc1)NNC(c1cc(N=Nc2ccc(Br)cc2)ccc1O)P(O)O (stereo unspecified) | < 4.00 | 5.40 | – |
| COc1cc(NCCN(CC(C)C)C(C)C(C)C)c2ncccc2c1 (stereo unspecified) | < 3.70 | 4.43 | – |
| COc1ccc2c(O)c(Oc3ccccc3)c(=O)oc2c1 | < 3.70 | 3.84 | – |
| C[C@]12CCCC(=O)C1C[C@H](C(=O)O)CC2 (stereo partly specified) | – | – | inactive |
| c1ccc(N=C2SC(=NC3CCCCC3)N(C3CCCCC3)C2=Nc2ccccc2)cc1 | < 3.70 | < 3.70 | – |
| CC(=O)C1C(=O)NC(=O)C1=O (stereo unspecified) | < 2.79 | < 2.79 | – |
| COc1ccccc1C(=O)NO | < 3.70 | < 3.70 | – |
| COc1c(Sc2c(SCSc3cnc4ccccc4c3Sc3cnc4ccccc4c3OC)cnc3ccccc23)cnc2ccccc12 | < 4.00 | < 4.00 | – |
| NS(=O)(=O)c1ccc(Nc2c3ccccc3nc3c(C(=O)N4CCN(CCO)CC4)ccc(Cl)c23)cc1 | < 4.31 | < 4.31 | – |
| CC1(c2ccc(F)cc2)C2C(=O)NC(=O)C1C(=O)NC2=O (stereo unspecified) | < 3.06 | 3.24 | – |
| CC(=O)OCC1OC(Nc2[nH]c(=O)n(C)c(=O)c2-c2csc(N)n2)C(OC(C)=O)C(OC(C)=O)C1OC(C)=O (stereo unspecified) | – | – | inactive |
